What was measured:
Pancreatic CSCs [1] = assay: apoptosis; type: cell-based, human
Protocol: (A and B) Induction of apoptosis and activation of caspase-3/-7. Pancreatic CSCs were treated with rottlerin (0-2 μM) for 48 h, and apoptosis and caspase-3/-7 activity were measured by […] and colorometric assay, respectively. […] (C) Pancreatic CSCs were treated with rottlerin (0-1 μM) for 48 h, and the expression of Bcl-2, XIAP and Survivin was measured by qRT-PCR and normalized to GAPDH.
(A) Pancreatic CSCs were treated with SAHA (3 and 5 μM) and 5-Aza-dc (2 and 4 μM) and cell viability was measured at 48 h by staining with trypan blue using Vi-CELL analyzer (Beckman Counter). (B) Pancreatic CSCs were untreated (a) or treated with SAHA (b) or 5-Aza-dC (c) for 48 h, and apoptosis was measured by staining with annexin-PI using Accuri Flow Cytometer. (C) Caspase-3/7 activity was measured in pancreatic CSCs treated with SAHA (0.5 and 2 μM) or 5-Aza-dC (1 and 3 μM) for 25 h.
(A) Regulation of caspase-3/7 activity by EGCG. CSCs were treated with EGCG (0-60 μM) for 24 h, and caspase-3/7 activity was measured as per manufacturer's instructions. […] (B) Regulation of apoptosis by EGCG. CSCs were treated with EGCG (0-60 μM) for 48 h, and apoptosis was measured by TUNEL assay. […] (C) Regulation of apoptosis-related proteins. Pancreatic CSCs were treated with EGCG (0-60 μM) for 36 h. Real time PCR (q-RT-PCR) was performed to examine the expression of Bcl-2, survivin, XIAP, and GAPDH.
FIG. 42A and FIG. 42B show graphs showing quercetin synergizes with EGCG to inhibit self-renewal capacity, invasion, migration, and TCF/LEF and Gli transcriptional activities in pancreatic CSCs. (A) Effects of EGCG and quercetin on spheroid and colony formation. Upper Panel, uercetin synergizes with EGCG to inhibit spheroid's cell viability. CSCs were seeded in suspension and treated with EGCG (0-60 μM) with or without quercetin (20 μM) for 7 days. At the end of incubation period, all the spheroids were collected and resuspended. Cell viability was measured by trypan blue assay. […] Lower panel, uercetin synergizes with EGCG to inhibit colony formation. Pancreatic CSCs were seeded in soft agar and treated with various doses of EGCG (0-60 μM) with or without quercetin (20 μM) and incubated at […] for 21 days. At the end of incubation period, colonies were counted. […] (B) Effects of EGCG and quercetin on invasion and migration. Upper panel, Matrigel invasion assay. CSCs were plated onto the Matrigel-coated membrane in the top chamber of the transwell and treated with EGCG (0-60 μM) with or without quercetin (20 μM) for 48 hrs. Cells invaded to the lower chambered were fixed with methanol, stained with crystal violet and counted. […] Lower panel, Transwell migration assay. Pancreatic CSCs were plated in the top chamber of the transwell and treated with EGCG (0-60 μM) with or without quercetin (20 μM) for 48 hrs. Cells migrated to the lower chambered were fixed with methanol, stained with crystal violet and counted. […] (C) Quercetin synergizes with EGCG to induce apoptosis. CSCs were seeded in suspension and treated with EGCG (0-60 μM) with or without quercetin (20 μM) for 7 days. At the end of incubation period, all the spheroids were collected. Apoptosis was measured by TUNEL assay. […] (D) Effects of EGCG and quercetin on TCF/LEF and Gli transcriptional activities. Pancreatic CSCs were transduced with either lentivirus encoding TCF/LEF responsive GFP and luciferase genes or Gli-responsive GFP and luciferase genes. Transduced CSCs were treated with EGCG (40 μM) with or without quercetin (20 μM) for 48 hrs and the luciferase activity was measured.
Pancreatic CSCs were (a) untreated, (b) treated with SAHA, or (c) treated with 5-Aza-dC for 48 hours and apoptosis was measured by staining with annexin-PI using Accuri Flow Cytometer. The results of those studies are illustrated in FIG. 31B.

Breast CSCs = assay: cell viability by XTT assay; type: cell-based; settings: 3 days
Protocol: Breast CSCs were seeded in 96-well plate and treated with sulforaphane, diallyl trisulphide, resveratrol and curcumin for 3 days. At the end of incubation period, CSCs were harvested and cell viability was measured by XTT assay.
Breast CSCs were seeded in 96-well plate and treated with rottlerin, EGCG, embelin, and honokiol for 3 days. At the end of incubation period, breast CSCs were harvested and cell viability was measured by XTT assay.
(A-D) Breast CSCs were treated with PITC (0-20 μM), BSC, (0-20 μM), sulforaphane (0-20 μM) and honokiol (0-10 μM) for 3 days, and cell viability was measured by XTT assay.
Breast CSCs were treated with rottlerin (0-1 μM) for 3 days, and cell viability was measured by XTT assay.
Breast CSCs were seeded in 96-well plate and treated with sulforaphane, diallyl trisulphide, resveratrol, and curcumin for 3 days and cell viability was measured by XTT assay. The results of those studies are illustrated in FIG. 29.
Breast CSCs were seeded in 96-well plate and treated with Rottlerin, EGCG, embelin, and honokiol for 3 days and cell viability was measured by XTT assay. The results of those studies are illustrated in FIG. 30.

Pancreatic CSCs [2] = assay: Matrigel invasion assay; type: cell-based, human
Protocol: (A and B) Pancreatic CSCs were treated with rottlerin (0-1 μM) for 24 h. The expression of Zeb-1 and Slug was measured by the qRT-PCR and normalized to GAPDH. […] (C) In vitro Matrigel invasion assay. CSCs were plated onto the Matrigel-coated membrane in the top chamber of the transwell and treated with rottlerin (0-2 μM) for 48 h. Cells invaded to the lower chamber were fixed with methanol, stained with crystal violet and photo micrographed.
(A) Pancreatic CSCs were treated with EGCG (0-60 μM) for 48 h. At the end of incubation period, the expression of Snail, ZEB1 and Slug was measured by q-RT-PCR. […] (B) Transwell migration assay. Pancreatic CSCs were plated in the top chamber of the transwell and treated with EGCG (0-60 μM) for 24 h. Cells migrated to the lower chambered were fixed with methanol, stained with crystal violet and counted. […] (C) Matrigel invasion assay. CSCs were plated onto the Matrigel-coated membrane in the top chamber of the transwell and treated with EGCG (0-60 μM) for 48 h. Cells invaded to the lower chambered were fixed with methanol, stained with crystal violet and counted. […] (D) Effects of EGCG on TCF-1/LEF activity. Pancreatic CSCs were transduced with TCF/LEF responsive GFP/firefly luciferase viral particles (pGreen Fire1-Gli with EF1, System Biosciences). Transduced CSCs were treated with EGCG (0-60) for 48 h and the GFP fluorescence was measured.
FIG. 42A and FIG. 42B show graphs showing quercetin synergizes with EGCG to inhibit self-renewal capacity, invasion, migration, and TCF/LEF and Gli transcriptional activities in pancreatic CSCs. (A) Effects of EGCG and quercetin on spheroid and colony formation. Upper Panel, uercetin synergizes with EGCG to inhibit spheroid's cell viability. CSCs were seeded in suspension and treated with EGCG (0-60 μM) with or without quercetin (20 μM) for 7 days. At the end of incubation period, all the spheroids were collected and resuspended. Cell viability was measured by trypan blue assay. […] Lower panel, uercetin synergizes with EGCG to inhibit colony formation. Pancreatic CSCs were seeded in soft agar and treated with various doses of EGCG (0-60 μM) with or without quercetin (20 μM) and incubated at […] for 21 days. At the end of incubation period, colonies were counted. […] (B) Effects of EGCG and quercetin on invasion and migration. Upper panel, Matrigel invasion assay. […] Cells invaded to the lower chambered were fixed with methanol, stained with crystal violet and counted. […] Cells migrated to the lower chambered were fixed with methanol, stained with crystal violet and counted. […] Apoptosis was measured by TUNEL assay. […] Transduced CSCs were treated with EGCG (40 μM) with or without quercetin (20 μM) for 48 hrs and the luciferase activity was measured.

[3] = EGCG 0-60 μM with or without quercetin 20 μM, 7 days, spheroids, TUNEL assay
[4] = EGCG 0-60 μM with or without quercetin 20 μM, 48 hrs

Structure (SMILES)	apoptosis (Pancreatic CSCs [1]; [3])	apoptosis (Pancreatic CSCs [1]; EGCG 0-60 μM, 48 h, TUNEL assay)	cell viability (Breast CSCs)	invasion (Pancreatic CSCs [2]; [4])	invasion (Pancreatic CSCs [2]; EGCG 0-60 μM, 48 h)	apoptosis (Pancreatic CSCs [1]; rottlerin 0-2 μM, 48 h)	in vitro invasion (Pancreatic CSCs [2]; rottlerin 0-2 μM, 48 h, Matrigel)
O=C(O[C@@H]1Cc2c(O)cc(O)cc2O[C@@H]1c1cc(O)c(O)c(O)c1)c1cc(O)c(O)c(O)c1 [EGCG, epigallocatechin gallate]	induced apoptosis	induced caspase-3/7 activity and apoptosis in pancreatic CSCs in a dose-dependent manner	inhibit cell viability	inhibited cell viability in spheroids, colony formation, migration and invasion by CSCs in a dose-dependent manner	inhibited	–	–
CC(=O)c1c(O)c(C)c(O)c(Cc2c(O)c3c(c(C(=O)/C=C/c4ccccc4)c2O)OC(C)(C)C=C3)c1O [rottlerin]	–	–	inhibits cell viability	–	–	induced	inhibited the in vitro invasion
C[S+]([O-])CCCCN=C=S (centres unmarked) [sulforaphane]	–	–	inhibit cell viability	–	–	–	–
O=c1c(O)c(-c2ccc(O)c(O)c2)oc2cc(O)cc(O)c12 [quercetin]	induced apoptosis	–	–	effective alone	–	–	–

Source: US20160374944A1, “COMPOSITIONS AND METHODS FOR TREATING AND PREVENTING CANCER BY TARGETING AND INHIBITING CANCER STEM CELLS” (priority 2011, published 2016)
